How the values were obtained:
[1] = tested on: THP-1 (acute monocytic leukemia); assay: CIMA assay (tetrazolium reduction, cell viability), THP-1; assay type: cell-based, human
Protocol: (§1) Stock solutions of the extracts were prepared in dimethylsulfoxide (DMSO) at 10 mg/mL and stored in 200 μl aliquots at −20° C. until analysis. This preparation ensured that the DMSO delivered to cells in culture never exceeded 1%.
(§2) Prepared extracts were assessed following chronic exposure conditions in which cells were seeded at 2×10^3 cells/well (96 wells-plate) and incubated with test compounds for 72 h. Each compound was evaluated over a range of concentrations (0, 10, 25, 50 or 100 μg/ml). Cell proliferation was initially assessed using a standard colorimetric indicator of metabolic activity (CIMA) assay. In this assay, tetrazole reduction was evaluated as a measure of metabolic function that evaluates mitochondrial activity to determine the extent of cell proliferation within a culture. This assay is based on the reduction of yellow tetrazolium salt to purple formazan by mitochondrial reductases enzyme in viable cells, resulting in a color changed that confers a change in absorbance. Six human cell lines were selected for primary evaluation: U373 (glioblastoma-astrocytoma), A549 (lung carcinoma), THP-1 (acute monocytic leukemia), MCF7 (mammary gland adenocarcinoma), SKOV3 (ovarian adenocarcinoma), and CCD1079SK (fibroblast, noncancerous but proliferating) (see FIG. 2 and Table 2). Table 3 expresses the IC50 for each extract.
(§3) These sub-fractions were again subjected to the bioassay evaluation presented above. Results are expressed in Table 8 as % viability (means±standard deviation of three replicates), with LD50/IC50 values in Table 9. […] The maximum DMSO concentration was 1% at 100 μg/ml with 5% SDS used as a known toxic inducer.

[2] = tested on: CCD1079SK (fibroblast, noncancerous but proliferating); assay: CIMA assay (tetrazolium reduction, cell viability), CCD1079SK; assay type: cell-based, human
Protocol: as §1, §2, §3

[3] = tested on: A549 (lung carcinoma); assay: CIMA assay (tetrazolium reduction, cell viability), A549; assay type: cell-based, human
Protocol: as §1, §2, §3

[4] = tested on: U373 (glioblastoma-astrocytoma); assay: CIMA assay (tetrazolium reduction, cell viability), U373; assay type: cell-based, human
Protocol: as §1, §2, §3

[5] = tested on: PC3; assay: CIMA assay (tetrazolium reduction, cell viability), PC3; assay type: cell-based
[6] = tested on: SKOV3 (ovarian adenocarcinoma); assay: CIMA assay (tetrazolium reduction, cell viability), SKOV3; assay type: cell-based, human
Protocol: as §1, §2, §3

[7] = tested on: MCF7 (mammary gland adenocarcinoma); assay: CIMA assay (tetrazolium reduction, cell viability), MCF7; assay type: cell-based, human
Protocol: as §1
as §2, with “extract. […]” for “extract.”

[8] = tested on: MDA-MB; assay: CIMA assay (cell viability), MDA-MB; assay type: cell-based
[9] = CIMA assay (tetrazolium reduction, cell viability), CCD1079SK; assay type: cell-based, human; details: human
Protocol: as §1, §2, §3

[10] = Homo sapiens, THP-1, read-out: average cell viability
[11] = Homo sapiens, A549, read-out: average cell viability
[12] = Homo sapiens, U373 MG, read-out: average cell viability
[13] = Homo sapiens, PC-3, read-out: average cell viability
[14] = Homo sapiens, SK-OV-3, read-out: average cell viability

In the case of `CCCCCCCCCCCCOS(=O)(=O)[O-].[Na+]` [SDS 5%, reference compound], the “% viability AVG” value [1] was 39.9%, the “% viability AVG” value [2] was 87.9% and the “% viability AVG” value [3] was 66.2%. For the same compound, the cell viability AVG [3] was 68.7%, the “% viability AVG” value [4] was 78.5% and the “% viability AVG” value [5] was 94.4%. For the same compound, the cell viability AVG [5] was 77.3%, the “% viability AVG” value [6] was 90.7% and the “% viability AVG” value [7] was 93.7%.

Work on `CCCCCC(O)C(O)/C=C/C1CCCCCCCC(=O)O1` (stereo not drawn) [compound 31-34-5, 12,13-dihydroxy-10-octadecen-9-olide] yielded a viability at 1 µg/mL [1, 10] of 96%, a viability at 10 µg/mL [1, 10] of 84% and a viability at 50 µg/mL [1, 10] of 68%. For the same compound, the viability at 100 µg/mL [1, 10] was 44%, the “fold change viability (AVG)” value ([8]; 10 ug/mL) was 1.05 and the “fold change viability (AVG)” value ([8]; 50 ug/mL) was 0.72. For the same compound, the viability at 1 µg/mL ([8]; 1 Ug/mL) was 101%, the viability at 10 µg/mL ([8]; 10 Ug/mL) was 96% and the viability at 50 µg/mL ([8]; 50 Ug/mL) was 66%. The viability at 100 µg/mL ([8]; 100 Ug/mL) was 20%, the viability at 72 h, 1 µg/mL [9] was 91% and the viability at 72 h, 10 µg/mL [9] was 84%. It also gave a viability at 72 h, 50 µg/mL [9] of 90%, a viability at 72 h, 100 µg/mL [9] of 17% and a viability at 1 µg/mL [3, 11] of 95%. The viability at 10 µg/mL [3, 11] was 93%, the viability at 50 µg/mL [3, 11] was 92% and the viability at 100 µg/mL [3, 11] was 61%. The viability at 1 µg/mL [4, 12] was 90%, the viability at 10 µg/mL [4, 12] was 85% and the viability at 50 µg/mL [4, 12] was 68%. The viability at 100 µg/mL [4, 12] was 3%, the viability at 1 µg/mL [5, 13] was 100% and the viability at 10 µg/mL [5, 13] was 93%. The viability at 50 µg/mL [5, 13] was 97%, the viability at 100 µg/mL [5, 13] was 19% and the viability at 1 µg/mL [6, 14] was 97%. It also gave a viability at 10 µg/mL [6, 14] of 97%, a viability at 50 µg/mL [6, 14] of 94% and a viability at 100 µg/mL [6, 14] of 85%.

— US10822322B2 (OCEANS LTD., priority 2016, dated 2020)
